Assay results as given in publication PMC6972920, “Structure-based development of caged dopamine D2/D3 receptor antagonists” (Scientific Reports, 2020).
“Also recorded” adds a separate entry of the source. Read-outs that look alike come from different tables or passages of the source. One block for each molecule: values may come before it.

How the values were obtained:
[1] = molecular target: T1, human adrenergic α2A receptor (Homo sapiens, UniProt P08913); test: Competition binding, [3H]RX821002, HEK293T membranes
T1 construct: expressed in transfected cells; host or cells: HEK293T cells, transient transfection
T1 sequence (P08913 1-465): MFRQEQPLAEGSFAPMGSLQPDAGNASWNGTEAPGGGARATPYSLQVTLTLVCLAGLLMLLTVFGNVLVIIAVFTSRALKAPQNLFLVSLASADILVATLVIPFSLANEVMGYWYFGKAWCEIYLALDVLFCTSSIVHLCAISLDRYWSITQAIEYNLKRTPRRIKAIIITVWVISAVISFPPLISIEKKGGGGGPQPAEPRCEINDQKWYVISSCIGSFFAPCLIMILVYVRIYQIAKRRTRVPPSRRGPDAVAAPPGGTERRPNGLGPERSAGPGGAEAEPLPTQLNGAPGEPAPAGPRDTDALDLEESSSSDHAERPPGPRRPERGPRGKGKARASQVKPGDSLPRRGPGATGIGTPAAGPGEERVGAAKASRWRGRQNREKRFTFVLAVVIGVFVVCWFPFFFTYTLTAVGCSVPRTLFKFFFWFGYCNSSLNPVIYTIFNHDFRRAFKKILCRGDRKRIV

[2] = Compound stability and photolysis in aqueous buffer monitored by HPLC; type: physicochemical; details: for behaviour upon illumination with λp = 365 nm (in words): aqueous buffer, LED 365 nm, HPLC; for stability in the absence of light (in words): dark, storage and solution, HPLC/LCMS
Procedure: All measurements were performed in aqueous buffer solution. Compound stability and photolysis was monitored by HPLC. […] Excitation of NB- and DMNB-type cages to trigger photolysis is usually performed with light of 300–400 nm. This absorption profile may limit the wavelength range for cage photolysis, as simultaneous excitation of the core pharmacophore may trigger photolytic degradation of the desired product. We performed photolysis experiments using a near UV light-emitting diode (LED) light source with a peak wavelength of λp = 365 nm and a spectrum half width of Δλ = 9 nm.
No unspecific degradation of the pharmacophore was observed, resulting in constant concentration of the desired product. […] The exposure to ambient light for longer time led to partial photolytic degradation. After incubation in aqueous buffer at ambient light for 1 h, we detected remaining 51% and 62% of the initial concentrations of 4 (MG307) and 5, respectively.
For compound characterization, UV/Vis absorption spectra of samples with c = 0.1 mM in methanol were measured on an Analytik Jena Specord 200 Plus spectrometer (λ = 210–400 nm). Irradiation experiments to trigger photolysis were performed in open HPLC glass vials using a LED (λ = 365 nm, 4.5 V, 0.7 A) to irradiate the samples from top. An aqueous buffer solution served as solvent (50 mM Tris, 1 mM EDTA, 50 mM MgCl2, 100 µg/ml bacitracin, 5 µg/ml soybean trypsin inhibitor), with initial sample concentrations of […] and sample volumes of 100 µl. Photolysis was monitored by HPLC as specified before (eluent system 1). […] Unless specified differently, all experiments were performed in triplicate.

[3] = molecular target: T2, human dopamine receptor subtype D4.4 (Homo sapiens, UniProt P21917); test: Radioligand displacement, [3H]spiperone, CHO cell membranes; type: binding
T2 sequence (P21917 1-419): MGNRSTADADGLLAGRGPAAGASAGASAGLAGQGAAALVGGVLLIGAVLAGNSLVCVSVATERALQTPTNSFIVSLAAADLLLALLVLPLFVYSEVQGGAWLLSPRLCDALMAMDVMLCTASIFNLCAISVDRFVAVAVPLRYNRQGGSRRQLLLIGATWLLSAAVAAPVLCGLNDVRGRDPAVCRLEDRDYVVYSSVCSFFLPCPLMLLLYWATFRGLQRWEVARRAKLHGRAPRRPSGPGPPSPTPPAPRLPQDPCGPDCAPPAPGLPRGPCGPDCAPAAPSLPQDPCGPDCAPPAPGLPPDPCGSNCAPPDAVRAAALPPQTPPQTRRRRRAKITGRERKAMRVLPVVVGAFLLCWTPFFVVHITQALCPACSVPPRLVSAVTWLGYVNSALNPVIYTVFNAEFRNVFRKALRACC

[4] = molecular target: human dopamine receptor subtype D2L (Homo sapiens, UniProt P14416); test: as above; type: binding
Chain of human dopamine receptor subtype D2L (P14416 whole entry): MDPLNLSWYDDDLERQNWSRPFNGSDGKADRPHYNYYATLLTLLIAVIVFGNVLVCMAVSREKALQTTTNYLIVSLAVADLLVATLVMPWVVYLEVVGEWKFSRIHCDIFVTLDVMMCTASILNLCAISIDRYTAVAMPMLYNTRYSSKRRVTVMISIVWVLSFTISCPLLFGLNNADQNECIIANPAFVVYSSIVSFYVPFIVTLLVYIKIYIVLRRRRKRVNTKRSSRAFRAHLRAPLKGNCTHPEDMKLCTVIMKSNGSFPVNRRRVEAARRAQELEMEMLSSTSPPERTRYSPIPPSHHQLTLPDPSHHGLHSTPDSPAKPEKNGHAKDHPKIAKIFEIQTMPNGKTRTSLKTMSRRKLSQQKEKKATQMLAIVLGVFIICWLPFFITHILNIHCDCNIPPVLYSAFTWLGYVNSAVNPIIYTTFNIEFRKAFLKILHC

[5] = molecular target: all dopamine receptor subtypes; test: Radioligand binding, text summary over all dopamine receptor subtypes tested; set-up: species or system human; details: range over D2L, D2S, D3, D4.4, stated in text; read-out: Ki values towards all dopamine receptor subtypes (range)
[6] = molecular target: human dopamine receptor subtype D2S (Homo sapiens, UniProt P14416); test: Radioligand displacement, [3H]spiperone, CHO cell membranes; type: binding
Chain of human dopamine receptor subtype D2S (P14416 1-414 isoform P14416-2): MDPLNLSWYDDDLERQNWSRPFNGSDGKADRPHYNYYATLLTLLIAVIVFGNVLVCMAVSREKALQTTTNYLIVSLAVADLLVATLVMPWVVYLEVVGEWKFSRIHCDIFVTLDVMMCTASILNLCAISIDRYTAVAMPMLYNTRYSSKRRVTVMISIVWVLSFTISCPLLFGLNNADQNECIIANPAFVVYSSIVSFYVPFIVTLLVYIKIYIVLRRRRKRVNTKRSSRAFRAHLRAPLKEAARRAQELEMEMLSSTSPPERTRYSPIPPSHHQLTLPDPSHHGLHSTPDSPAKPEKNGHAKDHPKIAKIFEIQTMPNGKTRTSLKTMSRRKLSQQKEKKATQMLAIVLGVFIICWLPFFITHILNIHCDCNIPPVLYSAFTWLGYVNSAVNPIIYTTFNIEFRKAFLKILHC

[7] = molecular target: human dopamine receptor subtype D3 (Homo sapiens, UniProt P35462); test: as above; type: binding; details: mean ± SEM of 4-9 experiments, compounds 1, 2, 3: ± SD of two experiments
Chain of human dopamine receptor subtype D3 (P35462 whole entry): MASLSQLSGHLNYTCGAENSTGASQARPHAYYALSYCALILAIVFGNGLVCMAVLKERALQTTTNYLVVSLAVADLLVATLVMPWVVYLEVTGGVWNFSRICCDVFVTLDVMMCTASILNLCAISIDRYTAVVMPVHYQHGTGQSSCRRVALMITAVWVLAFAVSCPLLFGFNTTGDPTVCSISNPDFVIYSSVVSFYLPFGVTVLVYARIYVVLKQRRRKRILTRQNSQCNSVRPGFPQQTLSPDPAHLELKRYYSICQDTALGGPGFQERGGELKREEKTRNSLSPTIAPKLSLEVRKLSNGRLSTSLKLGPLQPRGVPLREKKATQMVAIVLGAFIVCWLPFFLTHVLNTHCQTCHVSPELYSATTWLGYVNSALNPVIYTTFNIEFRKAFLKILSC

[8] = molecular target: T3, dopamine D2S receptor co-expressed with hybrid Gαqi in HEK293T cells (Homo sapiens, UniProt P14416); test: IP accumulation assay (IP-One HTRF), inhibition of 10 nM quinpirole; type: cell-based
T3 construct: expressed in transfected cells; host or cells: HEK-293T cells, transient co-transfection
T3 sequence (P14416 1-414 isoform P14416-2): as the sequence (P14416 1-414 isoform P14416-2) above

[9] = molecular target: T4, D2S receptor (HEK293T cells co-transfected with D2S and Gαqi) (Homo sapiens, UniProt P14416); test: Illumination experiment: test compound solution irradiated at 365 nm before addition to cells, quinpirole stimulated IP accumulation; type: cell-based; details: controls; 10 nM quinpirole
T4 construct: expressed in transfected cells; host or cells: HEK-293T cells, transient co-transfection
T4 sequence (P14416 1-414 isoform P14416-2): as above
Text: […]. Mean curves ± SEM of 4–9 individual curves each done in triplicates. […]. Mean curves from 3–4 experiments each done in duplicate. […]. While 4 (MG307) (green bars) is completely released after 10 sec, the uncaging of 5 (red bars) needs 20 sec. […]. Mean bars ± SEM derived from 3–11 individual experiments each done in quintuplicates. Irradiation with a solution of test compound before addition to the cellular test system. […]. Means ± SEM from 6 experiments in quintuplicates.
[…]. Actually, we observed an onset of a strong inverse agonist effect on quinpirole-induced IP accumulation after irradiation of the nitrobenzyl-caged compound 4 (MG307). […] […]. […] To complement uncaging of the test compounds by irradiation of the test compounds before addition to receptor by a biologically more significant experiment, we investigated whether uncaging can also be accomplished directly in the cellular system. […] In fact, quinpirole-promoted IP accumulation was substantially attenuated after irradiation for 10 or 20 sec. […] […]. […] […].
HEK293T cells were transiently co-transfected with D2S and Gαqi. Solutions of the test compounds were irradiated at λ = 365 nm using the same LED as for the photochemistry experiments (see above) for 2, 5, 10 or 20 sec and the test compound was added to the cell system immediately after illumination. […]. Accumulation of IP was determined as described above. […]. Basal activity (buffer) was set as 0%. As a control, quinpirole was irradiated for 20 sec without observing any difference to the effect of the untreated analog. […]. All irradiation experiments were carried out in the dark or under dim light.

[10] = molecular target: T3, dopamine D2S receptor co-expressed with hybrid Gαqi in HEK293T cells; test: IP accumulation assay (IP-One HTRF), agonist / inverse agonist effect; type: cell-based
[11] = molecular target: T5, human adrenergic β2 receptor (Homo sapiens, UniProt P07550); test: Competition binding, [3H]CGP12177, HEK293T membranes; details: ± SD of two experiments
T5 construct: expressed in transfected cells; host or cells: HEK293T cells, transient transfection
T5 sequence (P07550 whole entry): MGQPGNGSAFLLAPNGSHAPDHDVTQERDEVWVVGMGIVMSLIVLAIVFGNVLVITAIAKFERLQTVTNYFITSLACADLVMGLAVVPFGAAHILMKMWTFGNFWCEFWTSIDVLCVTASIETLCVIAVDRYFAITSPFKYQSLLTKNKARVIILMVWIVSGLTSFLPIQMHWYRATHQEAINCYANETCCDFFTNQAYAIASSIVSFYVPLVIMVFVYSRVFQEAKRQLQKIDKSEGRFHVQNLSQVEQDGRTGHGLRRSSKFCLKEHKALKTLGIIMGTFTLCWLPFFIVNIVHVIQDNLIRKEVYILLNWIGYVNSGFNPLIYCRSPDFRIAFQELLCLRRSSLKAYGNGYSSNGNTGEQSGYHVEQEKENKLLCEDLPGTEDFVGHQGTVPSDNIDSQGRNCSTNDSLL

[12] = molecular target: T6, human serotonin 5-HT2A receptor (Homo sapiens, UniProt P28223); test: Competition binding, [3H]ketanserin, HEK293T membranes; details: ± SD of two experiments
T6 construct: expressed in transfected cells; host or cells: HEK293T cells, transient transfection
T6 sequence (P28223 whole entry): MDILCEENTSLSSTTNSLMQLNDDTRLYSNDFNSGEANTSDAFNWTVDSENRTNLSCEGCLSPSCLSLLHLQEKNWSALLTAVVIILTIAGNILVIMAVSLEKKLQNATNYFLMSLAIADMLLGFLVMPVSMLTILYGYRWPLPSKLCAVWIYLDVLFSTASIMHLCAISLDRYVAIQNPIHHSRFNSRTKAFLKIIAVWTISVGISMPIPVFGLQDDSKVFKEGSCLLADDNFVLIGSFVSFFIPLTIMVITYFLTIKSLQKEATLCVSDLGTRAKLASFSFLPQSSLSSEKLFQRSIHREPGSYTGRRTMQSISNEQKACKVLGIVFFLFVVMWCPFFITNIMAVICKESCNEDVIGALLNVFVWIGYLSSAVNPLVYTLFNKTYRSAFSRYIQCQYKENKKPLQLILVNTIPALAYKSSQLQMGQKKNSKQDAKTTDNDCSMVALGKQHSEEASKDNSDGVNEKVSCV

[13] = molecular target: T7, human dopamine D5 receptor (Homo sapiens, UniProt P21918); test: Competition binding, [3H]SCH23390, HEK293T membranes
T7 construct: expressed in transfected cells; host or cells: HEK293T cells, transient transfection
T7 sequence (P21918 whole entry): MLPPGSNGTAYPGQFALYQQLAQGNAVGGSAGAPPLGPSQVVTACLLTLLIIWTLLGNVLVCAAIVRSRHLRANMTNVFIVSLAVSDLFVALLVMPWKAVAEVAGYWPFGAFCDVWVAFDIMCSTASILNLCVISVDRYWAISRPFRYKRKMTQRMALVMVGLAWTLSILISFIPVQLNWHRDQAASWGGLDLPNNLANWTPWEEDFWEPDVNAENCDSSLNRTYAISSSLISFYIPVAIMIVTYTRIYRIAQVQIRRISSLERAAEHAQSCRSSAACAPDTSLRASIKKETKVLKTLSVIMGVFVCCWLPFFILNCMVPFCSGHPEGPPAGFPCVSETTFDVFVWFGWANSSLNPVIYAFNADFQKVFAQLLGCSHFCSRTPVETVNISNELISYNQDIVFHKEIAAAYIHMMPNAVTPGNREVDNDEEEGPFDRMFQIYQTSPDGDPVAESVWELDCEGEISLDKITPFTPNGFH

[14] = molecular target: T8, human serotonin 5-HT1A receptor (Homo sapiens, UniProt P08908); test: Competition binding, [3H]WAY600135, HEK293T membranes; details: ± SD of two experiments
T8 construct: expressed in transfected cells; host or cells: HEK293T cells, transient transfection
T8 sequence (P08908 1-422): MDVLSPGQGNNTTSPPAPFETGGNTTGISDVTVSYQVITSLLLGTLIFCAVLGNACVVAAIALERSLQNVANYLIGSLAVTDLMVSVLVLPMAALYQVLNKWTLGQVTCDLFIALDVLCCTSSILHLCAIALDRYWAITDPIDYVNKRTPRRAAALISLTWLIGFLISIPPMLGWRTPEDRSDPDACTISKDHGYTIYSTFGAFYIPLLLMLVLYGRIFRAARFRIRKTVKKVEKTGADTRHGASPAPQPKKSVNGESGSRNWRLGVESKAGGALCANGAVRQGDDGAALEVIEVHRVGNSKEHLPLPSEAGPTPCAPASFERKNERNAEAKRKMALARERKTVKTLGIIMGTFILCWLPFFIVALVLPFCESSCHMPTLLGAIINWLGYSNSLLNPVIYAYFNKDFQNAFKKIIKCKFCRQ

D2 and D3 receptors = test: Radioligand binding, summary over D2 and D3 subtypes; set-up: species or system human; details: range over D2L, D2S, D3, stated in text
[15] = molecular target: T9, human dopamine D1 receptor (Homo sapiens, UniProt P21728); test: Competition binding, [3H]SCH23390, HEK293T membranes
T9 construct: expressed in transfected cells; host or cells: HEK293T cells, transient transfection
T9 sequence (P21728 whole entry): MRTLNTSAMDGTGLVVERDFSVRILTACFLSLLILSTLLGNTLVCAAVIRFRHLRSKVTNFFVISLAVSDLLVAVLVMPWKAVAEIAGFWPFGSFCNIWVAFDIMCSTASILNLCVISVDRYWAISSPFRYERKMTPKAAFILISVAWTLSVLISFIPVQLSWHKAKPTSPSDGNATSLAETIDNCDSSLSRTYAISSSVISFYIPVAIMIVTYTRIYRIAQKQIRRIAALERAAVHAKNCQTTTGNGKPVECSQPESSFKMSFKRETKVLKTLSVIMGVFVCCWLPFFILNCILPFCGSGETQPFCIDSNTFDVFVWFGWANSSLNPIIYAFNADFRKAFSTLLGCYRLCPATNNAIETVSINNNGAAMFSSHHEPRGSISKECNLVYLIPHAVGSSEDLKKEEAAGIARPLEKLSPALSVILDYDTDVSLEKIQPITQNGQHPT

[16] = molecular target: T10, human adrenergic α1A receptor (Homo sapiens, UniProt P35348); test: Competition binding, [3H]prazosin, HEK293T membranes; details: ± SD of two experiments
T10 construct: expressed in transfected cells; host or cells: HEK293T cells, transient transfection
T10 sequence (P35348 1-466): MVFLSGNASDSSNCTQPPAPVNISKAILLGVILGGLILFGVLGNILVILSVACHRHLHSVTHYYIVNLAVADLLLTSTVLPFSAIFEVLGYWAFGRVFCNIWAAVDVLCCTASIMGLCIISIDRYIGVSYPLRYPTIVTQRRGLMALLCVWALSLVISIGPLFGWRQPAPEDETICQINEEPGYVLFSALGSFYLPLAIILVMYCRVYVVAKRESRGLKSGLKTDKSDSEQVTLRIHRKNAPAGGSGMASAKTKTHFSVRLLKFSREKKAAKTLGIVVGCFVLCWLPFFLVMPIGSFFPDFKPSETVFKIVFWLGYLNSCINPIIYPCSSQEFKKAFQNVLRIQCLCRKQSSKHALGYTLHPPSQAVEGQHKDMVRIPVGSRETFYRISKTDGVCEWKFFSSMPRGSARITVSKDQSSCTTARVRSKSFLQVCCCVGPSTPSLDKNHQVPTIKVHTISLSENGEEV

[17] = [3H]spiperone, mean ± SEM of 4-9 experiments, compounds 1, 2, 3: ± SD of two experiments, read-out: Ki value D4.4
[18] = [3H]spiperone, mean ± SEM of 4-9 experiments, compounds 1, 2, 3: ± SD of two experiments, read-out: Ki value D2L
[19] = [3H]spiperone, mean ± SEM of 4-9 experiments, compounds 1, 2, 3: ± SD of two experiments, read-out: Ki value D2S

- Ki [4, 18]: 1300 ± 250 nM
- Emax ([8]; HEK-293T, in presence of 10 nM quinpirole, relative to quinpirole (100%) and buffer (0%), read-out: inhibitory effect Emax): -17 ± 9.8%
- IC50 ([8]; blocking of the agonist effect of 10 nM quinpirole, ± SEM, 4-6 experiments, read-out: inhibitory effect IC50): 5500 ± 2900 nM
- Emax ([10]; HEK-293T, relative to full effect of quinpirole (100%) and buffer (0%)): -22 ± 1.8%
- EC50 ([10]; IP accumulation, ± SEM, 3-8 experiments, negative Emax = inverse agonist effect): 480 ± 310 nM
- Ki [3, 17]: 7700 ± 1100 nM
- Ki [6, 19]: 510 ± 120 nM
- Ki [7]: 480 ± 120 nM
Compound: CCc1ccc(OC)c(C(=O)NC[C@@H]2CCCN2CC)c1OCc1ccccc1 [compound 6]
- effect of irradiation at 365 nm for 20 sec on the compound's effect on IP accumulation (in words) [9]: does not affect; also recorded: no significant effect
- functional properties in IP accumulation assay (in words) ([10]; D2S receptors): inverse agonist properties were observed as well, but potency was low

- Ki [11]: 4900 ± 210 nM
- Ki [4]: 0.25 ± 0.062 nM
- Ki [12]: 220 ± 23 nM
- Ki [13]: 46000 ± 1100 nM
- Ki [14]: 570 ± 250 nM
- Ki (D2 and D3 receptors): 0.21 to 0.28 nM
- Ki [3]: 120 ± 19 nM
- Ki [15]: 23000 ± 5800 nM
- Ki [16]: 81 ± 2.1 nM
- Ki [6]: 0.28 ± 0.03 nM
- Ki ([1]; [3H]RX821002, ± SD of two experiments): 66 ± 19 nM
Compound: CCc1cc(Cl)c(OC)c(C(=O)NC[C@@H]2CCCN2CC)c1O [eticlopride]
- behaviour upon illumination with λp = 365 nm (in words) [2]: fast decomposition rate towards light with λp = 365 nm

Continued, molecule first:

Compound: COC1(C2=NCCN2)COc2ccccc2O1 (centres unmarked) [[^3H]RX801002]
- Kd ([1]; HEK293T membranes, read-out: KD of radioligand for α2A): 0.29 nM

Compound: CCc1cc(Cl)c(OC)c(C(=O)NC[C@@H]2CCCN2CC)c1OCc1ccccc1[N+](=O)[O-] [compound 1]
- behaviour upon illumination with λp = 365 nm (in words) [2]: complete photolysis after seconds of irradiation
- stability in the absence of light (in words) [2]: not fully stable and slowly decomposed to liberate eticlopride even in the absence of light
- Ki [3, 17]: 2800 ± 1200 nM

Compound: CCc1cc(Cl)c(OC)c(C(=O)NC[C@@H]2CCCN2CC)c1OCc1cc(OC)c(OC)cc1[N+](=O)[O-] [compound 2]
- behaviour upon illumination with λp = 365 nm (in words) [2]: Rapid photolytic degradation
- stability in the absence of light (in words) [2]: not fully stable and slowly decomposed to liberate eticlopride even in the absence of light

Compound: CCc1cc(Cl)c(OC)c(C(=O)NC[C@@H]2CCCN2CC)c1OCc1ccccc1 [compound 3]
- Ki [4, 18]: 4800 ± 3500 nM
- Ki [5]: 4800 to 22000 nM
- Ki [6, 19]: 6200 ± 3500 nM
- Ki [7]: 5600 ± 5400 nM
